According to patent publication US20050019425A1, “Composition and method” (priority 2001, published 2005):

How the values were obtained:
[1] = system: Hair growth of Beagles; assay: Hair growth measurement in adult beagles fed diets with various levels of selenium; type: in vivo, dog (Beagle)
Source text: Adult beagles of both male and females are used. They are between 1.2 and 3.7 years of age at the start of the experiment.
(§1) Study Design: Thirty-six adult dogs are divided into six groups of six dogs in each group based on their age, gender and body condition score so that the averages of those three criteria are similar among groups. All dogs are given the basal diet for three weeks (pre-treatment period) before they are allocated to one of the experimental diets. The third week of the pre-treatment period is considered as week 0 of the study. Hair growth is measured in weeks 0, 11 and 22 of the study using the method described below. Dogs are fed with the experimental diets for 24 weeks.
(§2) A torula yeast basal diet is used. The basal diet is nutritionally complete and balanced for an adult dog except for selenium. Different amounts of selenium (as selenomethionine) are added into the basal diet to form six experimental diets which contain 0, 0.05, 0.1, 0.5, 1 or 5 mg selenium/kg diet dry matter, respectively. Selenium concentrations in the experimental diets are confirmed by chemical analyses. The analyzed dietary selenium concentrations were 0.034, 0.085, 0.123, 0.527, 1.025 and 5.045 mg/kg dry matter, respectively.
Hair Growth Measurement: Hairs in an area of […] on the left side of the body above the hind leg and about 3 cm away from the spinal are clipped with an electronic clipper (Oster Pro™ Model 78400-01A, blade size: 40.1 mm, Oster Elite™). The hair is cut as close to the skin as possible. A tattoo dot of about 1 mm in diameter is made in the center of the clipped area using a tattoo marker (Spaulding Special Electric Tattoo Marker, Model SSEMK). Hair growth is measured by taking photographs from the same clipped area twice using the tattoo dot as a marker. The first photograph is taken right after the clipping and the second photograph four days later. A Polaroid close-up camera (CU-5) and Polaroid 665 films are used to take photographs. A glass slide is attached to the front frame of the camera to press hairs to the skin to minimize errors caused by the angle formed between standing hair and the skin. The image is magnified three times by the camera. Same exposure conditions are used for all dogs in the study. On each day of photograph shooting, a photograph is also taken of a ruler with clear markers under the same conditions and serves as a reference. After exposure, both prints and negatives of the films are treated according to the use directions. The negative films provide sharp and clear images of hairs and are used for hair growth measurement. The negative films are scanned (EPSON Expression 836XL) into a computer. Afterwards, the length of primary hairs in the film is measured using an image analyzing software (BioScan Optimas). The difference of the average hair lengths between the first and the second photographs from the same dog is the hair growth during the four-day period.

[2] = Clinical signs, food intake, body weight, blood and thyroid hormone measurements in dogs during the 24-week feeding study; type: in vivo, dog (Beagle); details: diets with 0 to 5 mg added selenium/kg, study period 24 weeks
Description: as §1, §2

C[Se]CC[C@H](N)C(=O)O [selenium, selenomethionine]
Hair growth ([1]; dietary Se 0.034 mg/kg dry matter (0 added), Week 0 (pre-treatment, basal diet)): 0.21 mm/day
Hair growth ([1]; dietary Se 0.034 mg/kg dry matter (0 added), Week 11): 0.12 mm/day
Hair growth ([1]; dietary Se 0.034 mg/kg dry matter (0 added), Week 22): 0.12 mm/day
Hair growth ([1]; dietary Se 0.085 mg/kg dry matter (0.05 added), Week 0 (pre-treatment, basal diet)): 0.18 mm/day
Hair growth ([1]; dietary Se 0.085 mg/kg dry matter (0.05 added), Week 11): 0.15 mm/day
Hair growth ([1]; dietary Se 0.085 mg/kg dry matter (0.05 added), Week 22): 0.11 mm/day
Hair growth ([1]; dietary Se 0.123 mg/kg dry matter (0.1 added), Week 0 (pre-treatment, basal diet)): 0.13 mm/day
Hair growth ([1]; dietary Se 0.123 mg/kg dry matter (0.1 added), Week 11): 0.26 mm/day
Hair growth ([1]; dietary Se 0.123 mg/kg dry matter (0.1 added), Week 22): 0.20 mm/day
Hair growth ([1]; dietary Se 0.527 mg/kg dry matter (0.5 added), Week 0 (pre-treatment, basal diet)): 0.15 mm/day
Hair growth ([1]; dietary Se 0.527 mg/kg dry matter (0.5 added), Week 11): 0.22 mm/day
Hair growth ([1]; dietary Se 0.527 mg/kg dry matter (0.5 added), Week 22): 0.23 mm/day
Hair growth ([1]; dietary Se 1.025 mg/kg dry matter (1 added), Week 0 (pre-treatment, basal diet)): 0.18 mm/day
Hair growth ([1]; dietary Se 1.025 mg/kg dry matter (1 added), Week 11): 0.26 mm/day
Hair growth ([1]; dietary Se 1.025 mg/kg dry matter (1 added), Week 22): 0.20 mm/day
Hair growth ([1]; dietary Se 5.045 mg/kg dry matter (5 added), Week 0 (pre-treatment, basal diet)): 0.20 mm/day
Hair growth ([1]; dietary Se 5.045 mg/kg dry matter (5 added), Week 11): 0.14 mm/day
Hair growth ([1]; dietary Se 5.045 mg/kg dry matter (5 added), Week 22): 0.13 mm/day
Effect on hair growth of dogs (conclusion) ([1]; dietary selenium concentrations from 0.1 to about 4.5 mg selenium/kg diet): maximize hair growth of dogs
Rate of hair growth compared between diet groups ([1]; diets containing 0.1, 0.5 or 1 mg selenium/kg vs 0, 0.05 or 5 mg selenium/kg, week 11 and 22): significantly (p<0.05) higher rate of hair growth
Difference in hair growth among groups ([1]; week 0 (pre-treatment)): no difference in hair growth among groups
Average food intake and body weights [2]: not affected by the dietary treatments
Blood CBC and chemistry measurements, serum total thyroxine and 3,5,3'-triiodothyronine [2]: within the normal ranges
